30 molecules from patent publication US10617680B2 (CELGENE QUANTICEL RESEARCH, INC., priority 2017, dated 2020) can be followed below.

Read-outs that look alike come from different tables or passages of the source.

The term IC50 denotes the midpoint of a concentration-inhibition curve.

For one assay, the target named is BRD4 (Homo sapiens (Human), UniProt O60885). Put plainly: In vitro enzyme inhibition assay - BRD4 inhibition. The assay is classed as binding. The settings on record: BRD4 BD1, Table 30.
The target of another assay is CBP (Homo sapiens (Human), UniProt Q92793). Put plainly: In vitro CBP inhibition (AlphaScreen, biotinylated H4-tetraacetyl peptide). The assay is classed as binding. The gist of the method:
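His-tagged CBP expressed in E. coli (50 nM final) incubated with biotinylated H4K5/8/12/16(Ac) peptide (20 nM final) in 50 mM HEPES pH 7.3, 10 mM NaCl, 0.25 mM TCEP, 0.1% BSA, 0.005% Brij-35, 0.4% DMSO, 20 min at room temp.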

The mark [1] stands for this setting: AlphaScreen, Table 29, read-out: CBP IC50.
Where [2] appears, read: Table 30, read-out: CRREBBP IC50.

Chain of CBP (Q92793 1081-1197): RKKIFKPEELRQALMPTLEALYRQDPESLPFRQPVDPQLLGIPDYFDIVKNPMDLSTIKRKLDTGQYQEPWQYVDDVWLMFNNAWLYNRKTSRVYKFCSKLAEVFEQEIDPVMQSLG

`Cc1cc(-c2cnn(C(c3ccccc3)C3CC3)c2)cn(C)c1=O` (stereo not drawn) [Example 18, 5-(1-(cyclopropyl (phenyl)methyl)-1H-pyrazol-4-yl)-1,3-dimethyl-pyridin-2(1H)-one]: the IC50 against BRD4 was 500 to 5000 nM.
On to `CC(c1ccccc1)n1cc(-c2cn(C)c(=O)cc2N2CCCC2)cn1` (stereo not drawn) [Example 41, 1-methyl-5-(1-(1-phenylethyl)-1H-pyrazol-4-yl)-4-(pyrrolidin-1-yl) pyridin-2(1H)-one], for which the figures for the IC50 at CBP (setting [1]), on CBP (setting [2]) and against BRD4 were less than 500 nM, less than 500 nM and 500 to 5000 nM, respectively.
For the molecule `CC(c1ccccc1)n1cc(-c2cn(C)c(=O)cc2N2CCOCC2)cn1` (stereo not drawn) [Example 43, 1-methyl-4-morpholino-5-(1-(1-phenylethyl)-1H-pyrazol-4-yl) pyridin-2(1H)-one], the IC50 was less than 500 nM at CBP (setting [1]), less than 500 nM at CBP (setting [2]) and 500 to 5000 nM at BRD4.
For the molecule `Cn1cc(-c2cnn(Cc3ccccc3)c2)c(N2CC[C@@H](C(=O)O)C2)cc1=O` [Example 74, (R)-1-(5-(1-benzyl-1H-pyrazol-4-yl)-1-methyl-2-oxo-1,2-dihydro-pyridin-4-yl)pyrrolidine-3-carboxylic acid], the IC50 at CBP (setting [1]) was less than 500 nM; on CBP (setting [2]), less than 500 nM; on BRD4, greater than 5000 nM.
On to `Cn1cc(-c2cnn(Cc3ccccc3)c2)c(-n2ccnc2)cc1=O` [Example 94, 5-(1-benzyl-1H-pyrazol-4-yl)-4-(1H-imidazol-1-yl)-1-methyl-pyridin-2(1H)-one], for which the IC50 on CBP (setting [1]) is less than 500 nM; at CBP (setting [2]), less than 500 nM; on BRD4, greater than 5000 nM.
With `Cc1cc(-c2cc(=O)n(C)cc2-c2cnn(Cc3ccccc3)c2)[nH]n1` [Example 115, 5-(1-benzyl-1H-pyrazol-4-yl)-1-methyl-4-(3-methyl-1H-pyrazol-5-yl) pyridin-2(1H)-one], the figures for the IC50 at CBP (setting [1]), on CBP (setting [2]) and on BRD4 were less than 500 nM, less than 500 nM and greater than 5000 nM, respectively.
For the molecule `Cn1cc(-c2cnn(Cc3ccccc3)c2)c(-c2ccon2)cc1=O` [Example 121, 5-(1-benzyl-1H-pyrazol-4-yl)-4-(isoxazol-3-yl)-1-methyl-pyridin-2(1H)-one], the IC50 on CBP (setting [1]) was less than 500 nM; on CBP (setting [2]), less than 500 nM; against BRD4, greater than 5000 nM.
Turning to `Cn1cc(-c2cnn(CS(C)(=O)=O)c2)c(-c2ccccc2)cc1=O` [Example 129, 1-methyl-5-(1-((methyl-sulfonyl)-methyl)-1H-pyrazol-4-yl)-4-phenylpyridin-2(1H)-one], the IC50 on CBP (setting [1]) was less than 500 nM; on CBP (setting [2]), less than 500 nM; at BRD4, greater than 5000 nM.
For the molecule `Cn1cc(-c2cnn(-c3ccccc3C(=O)O)c2)c(-c2ccccc2)cc1=O` [Example 223, 2-[4-(1-Methyl-6-oxo-4-phenyl-1,6-dihydro-pyridin-3-yl)-pyrazol-1-yl]-benzoic acid], the IC50 is less than 500 nM on CBP (setting [1]), less than 500 nM on CBP (setting [2]) and greater than 5000 nM against BRD4.
For `Cn1cc(-c2cnn(-c3ccccc3S(C)(=O)=O)c2)c(-c2ccc(Cl)cc2)cc1=O` [Example 286, 4-(4-Chloro-phenyl)-5-[1-(2-methanesulfonyl-phenyl)-1H-pyrazol-4-yl]-1-methyl-1H-pyridin-2-one], the results for the IC50 at CBP (setting [1]), on CBP (setting [2]) and against BRD4 were less than 500 nM, less than 500 nM and greater than 5000 nM, respectively.
Turning to `CCNc1ncc(-c2cc(=O)n(C)cc2-c2cnn(-c3ccccc3C#N)c2)cn1` [Example 323, 2-(4-(4-(2-(ethylamino)pyrimidin-5-yl)-1-methyl-6-oxo-1,6-dihydropyridin-3-yl)-1H-pyrazol-1-yl)benzonitrile], the values for the IC50 at CBP (setting [1]), on CBP (setting [2]) and against BRD4 were less than 500 nM, less than 500 nM and 500 to 5000 nM, respectively.
As to `CN(C)CCCOc1ccc(-c2cc(=O)n(C)cc2-c2cnn(-c3cccc(C4CC4)c3C#N)c2)cn1` [Example 382, 2-cyclopropyl-6-(4-(6-(3-(dimethylamino)propoxy)-1′-methyl-6′-oxo-1′,6′-dihydro-[3,4′-bipyridin]-3′-yl)-1H-pyrazol-1-yl)benzonitrile], the IC50 at CBP (setting [1]) is less than 500 nM.
Consider `COc1ccc(-c2cc(=O)n(C)cc2-c2cnn(-c3cccc(C4CC4)c3C#N)c2)cn1` [Example 383, 2-cyclopropyl-6-(4-(6-methoxy-1′-methyl-6′-oxo-1′,6′-dihydro-[3,4′-bipyridin]-3′-yl)-1H-pyrazol-1-yl)benzonitrile], for which the IC50 at CBP (setting [1]) was less than 500 nM.
For `CCOc1ccc(-c2cc(=O)n(C)cc2-c2cnn(-c3cccc(C4CC4)c3C#N)c2)cn1` [Example 384, 2-cyclopropyl-6-(4-(6-ethoxy-1′-methyl-6′-oxo-1′,6′-dihydro-[3,4′-bipyridin]-3′-yl)-1H-pyrazol-1-yl)benzonitrile], the IC50 at CBP (setting [1]) was less than 500 nM.
With `CCCn1ccc(-c2cc(=O)n(C)cc2-c2cnn(-c3cccc(C4CC4)c3C#N)c2)cc1=O` [Example 385, 2-cyclopropyl-6-[4-[1-methyl-6-oxo-4-(2-oxo-1-propyl-4-pyridyl)-3-pyridyl]pyrazol-1-yl]benzonitrile], the IC50 at CBP (setting [1]) is less than 500 nM.
In the case of `CCn1ccc(-c2cc(=O)n(C)cc2-c2cnn(-c3cccc(C4CC4)c3C#N)c2)cc1=O` [Example 386, 2-cyclopropyl-6-[4-[4-(1-ethyl-2-oxo-4-pyridyl)-1-methyl-6-oxo-3-pyridyl]pyrazol-1-yl]benzonitrile], the IC50 at CBP (setting [1]) was less than 500 nM.
On to `Cn1cc(-c2cnn(-c3cccc(C4CC4)c3C#N)c2)c(-c2ccc(OCCF)nc2)cc1=O` [Example 387, 2-cyclopropyl-6-[4-[4-[6-(2-fluoroethoxy)-3-pyridyl]-1-methyl-6-oxo-3-pyridyl]pyrazol-1-yl]benzonitrile], for which, at CBP (setting [1]), the IC50 is less than 500 nM.
The same measure, in the same setting: then `Cn1cc(-c2cnn(-c3cccc(C4CC4)c3C#N)c2)c(-c2ccn(C3CC3)c(=O)c2)cc1=O` [Example 388, 2-cyclopropyl-6-(4-(1′-cyclopropyl-1-methyl-2′,6-dioxo-1,1′,2′,6-tetrahydro-[4,4′-bipyridin]-3-yl)-1H-pyrazol-1-yl)benzonitrile], with less than 500 nM; and `Cn1cc(-c2cnn(-c3cccc(C4CC4)c3C#N)c2)c(-c2ccn(CCF)c(=O)c2)cc1=O` [Example 389, 2-cyclopropyl-6-[4-[4-[1-(2-fluoroethyl)-2-oxo-4-pyridyl]-1-methyl-6-oxo-3-pyridyl]pyrazol-1-yl]benzonitrile], with less than 500 nM.
As to `Cn1cc(-c2cnn(-c3cccc(C4CC4)c3C#N)c2)c(-c2ccn(CCO)c(=O)c2)cc1=O` [Example 390, 2-cyclopropyl-6-[4-[4-[1-(2-hydroxyethyl)-2-oxo-4-pyridyl]-1-methyl-6-oxo-3-pyridyl]pyrazol-1-yl]benzonitrile], the IC50 on CBP (setting [1]) was less than 500 nM.
With `Cn1cc(-c2cnn(-c3cccc(C4CC4)c3C#N)c2)c(-c2ccc(OCC3CC3)nc2)cc1=O` [Example 391, 2-cyclopropyl-6-(4-(6-(cyclopropylmethoxy)-1′-methyl-6′-oxo-1′,6′-dihydro-[3,4′-bipyridin]-3′-yl)-1H-pyrazol-1-yl)benzonitrile], at CBP (setting [1]), the IC50 was less than 500 nM.
In the case of `CCOc1cc(=O)n(C)cc1-c1cnn2c1CN(S(C)(=O)=O)CC2` [Example 392, 4-Ethoxy-5-(5-methanesulfonyl-4,5,6,7-tetrahydro-pyrazolo[1,5-a]pyrazin-3-yl)-1-methyl-1H-pyridin-2-one], the IC50 at CBP (setting [1]) is less than 500 nM.
The same measure, in the same setting: then `CCOc1cc(=O)n(C)cc1-c1cnn2c1CN(C(C)=O)CC2` [Example 393, 5-(5-Acetyl-4,5,6,7-tetrahydro-pyrazolo[1,5-a]pyrazin-3-yl)-4-ethoxy-1-methyl-1H-pyridin-2-one], with 500 to 5000 nM; and `Cn1cc(-c2ncc(-c3ccccc3)o2)c(-c2ccccc2)cc1=O` [Example 394, 1-methyl-4-phenyl-5-(5-phenyloxazol-2-yl)pyridin-2(1H)-one], with 500 to 5000 nM; and `Cn1nc(-c2cn(C)c(=O)cc2-c2ccccc2)cc1-c1ccccc1` [Example 395, 1-methyl-5-(1-methyl-5-phenyl-1H-pyrazol-3-yl)-4-phenylpyridin-2(1H)-one], with less than 500 nM.
With `Cn1cc(-c2coc(-c3ccccc3)n2)c(-c2ccccc2)cc1=O` [Example 396, 1-methyl-4-phenyl-5-(2-phenyloxazol-4-yl)pyridin-2(1H)-one], the IC50 at CBP (setting [1]) was less than 500 nM.
Turning to `Cn1cc(-c2cnc(-c3ccccc3)o2)c(-c2ccccc2)cc1=O` [Example 397, 1-methyl-4-phenyl-5-(2-phenyloxazol-5-yl)pyridin-2(1H)-one], the IC50 on CBP (setting [1]) fell in the range of 500 to 5000 nM.
As to `Cc1sc2c(c1C)C(c1ccc(Cl)cc1)=N[C@@H](CC(=O)OC(C)(C)C)c1nnc(C)n1-2` [JQ-1, tert-butyl (S)-2-(4-(4-chloro-phenyl)-2,3,9-trimethyl-6H-thieno[3,2-f][1,2,4]triazolo[4,3-a][1,4]diazepin-6-yl)acetate, reference compound], the IC50 on CBP (setting [2]) was greater than 5000 nM.
Take `Cc1cc(-c2nc(NS(C)(=O)=O)ncc2Oc2ccc(F)cc2F)cn(C)c1=O` [N-(5-(2,4-difluorophenoxy)-4-(1,5-dimethyl-6-oxo-1,6-dihydropyridin-3-yl)pyrimidin-2-yl) methanesulfonamide]: the IC50 at CBP (setting [2]) was greater than 5000 nM; against BRD4, less than 500 nM.
Consider “N-{2-[5-(1-benzyl-1H-pyrazol-4- yl)-1-methyl-2-oxo-1,2-dihydro- pyridin-4-yl]-cyclo- pentyl}-acetamide [Example 88]”, for which the IC50 at CBP (setting [1]) is less than 500 nM.
